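How tested: cells in 96-well plates exposed to compound for 48 hours at five concentrations. The concentration for 50% growth inhibition is given as GI50.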 Calls of active or inactive are those of the source. Cut-off read from the data, not from the text of the source: active = GI50 up to about 1.1 µM and inactive = higher.
What was measured:
Experiment in all cases: inhibition of tumour cell growth, NCI panel, 48 h
[1] = test system: 786-0
[2] = test system: A498
[3] = test system: A549
[4] = test system: ACHN
[5] = test system: CAKI-1
[6] = test system: CCRF-CEM
[7] = test system: COLO 205
[8] = test system: DLD-1
[9] = test system: DMS-273
[10] = test system: EKVX
[11] = test system: HCC 2998
[12] = test system: HCT-116
[13] = test system: HCT-15
[14] = test system: HL-60
[15] = test system: HOP-18
[16] = test system: HOP-62
[17] = test system: HT-29
[18] = test system: IGROV-1
[19] = test system: K562
[20] = test system: KM-20L2
[21] = test system: KM12
[22] = test system: LOX IMVI
[23] = test system: LXFL 529
[24] = test system: M14
[25] = test system: M19-MEL
[26] = test system: MOLT-4
[27] = test system: Malme-3M
[28] = test system: NCI-H226
[29] = test system: NCI-H23
[30] = test system: NCI-H460
[31] = test system: NCI-H522
[32] = test system: OVCAR-3
[33] = test system: OVCAR-4
[34] = test system: OVCAR-5
[35] = test system: OVCAR-8
[36] = test system: RXF 393
[37] = test system: RXF 631
[38] = test system: SF-268
[39] = test system: SF-295
[40] = test system: SF-539
[41] = test system: SK-MEL-28
[42] = test system: SK-MEL-2
[43] = test system: SK-MEL-5
[44] = test system: SK-OV-3
[45] = test system: SN12C
[46] = test system: SNB-19
[47] = test system: SNB-75
[48] = test system: SNB-78
[49] = test system: SR
[50] = test system: SW-620
[51] = test system: TK-10
[52] = test system: U-251
[53] = test system: UACC-257
[54] = test system: UACC-62
[55] = test system: UO-31
[56] = test system: DMS-114
[57] = test system: HOP-92
[58] = test system: RPMI-8226
[59] = test system: XF498

Measured: GI50

CCOc1ccccc1NC(=O)C(=O)c1c(O)c2ccc(O)cc2oc1=O
> 100 µM: [13]
inactive: [1] > 100 µM | [2] > 100 µM | [3] > 100 µM | [4] > 100 µM | [5] > 100 µM | [6] > 100 µM | [7] > 100 µM | [8] > 100 µM | [9] > 100 µM | [10] > 100 µM | [11] > 100 µM | [12] > 100 µM | [14] > 100 µM | [15] > 100 µM | [16] > 100 µM | [17] > 100 µM | [18] > 100 µM | [19] > 100 µM | [20] > 100 µM | [21] > 100 µM | [22] > 100 µM | [23] > 100 µM | [24] > 100 µM | [25] > 100 µM | [26] > 100 µM | [27] > 100 µM | [28] > 100 µM | [29] > 100 µM | [30] > 100 µM | [31] > 100 µM | [32] > 100 µM | [33] > 100 µM | [34] > 100 µM | [35] > 100 µM | [36] > 100 µM | [37] > 100 µM | [38] > 100 µM | [39] > 100 µM | [40] > 100 µM | [41] > 100 µM | [42] > 100 µM | [43] > 100 µM | [44] > 100 µM | [45] > 100 µM | [46] > 100 µM | [47] > 100 µM | [48] > 100 µM | [49] > 100 µM | [50] > 100 µM | [51] > 100 µM | [52] > 100 µM | [53] > 100 µM | [54] > 100 µM | [55] > 100 µM

Cc1ccc(C)c(N2C(=O)C(=O)C(c3nc4ccccc4s3)/C(=N\c3cccc4c(=O)[nH][nH]c(=O)c34)C2=O)c1 (centres undefined)
> 100 µM: [13]
inactive: [1] > 100 µM | [2] > 100 µM | [3] > 100 µM | [4] > 100 µM | [5] > 100 µM | [6] > 100 µM | [7] 38.2 µM | [8] > 100 µM | [56] > 100 µM | [9] > 100 µM | [10] > 100 µM | [11] > 100 µM | [12] > 100 µM | [14] > 100 µM | [15] > 100 µM | [16] > 100 µM | [57] > 100 µM | [17] > 100 µM | [18] > 100 µM | [19] > 100 µM | [20] > 100 µM | [21] > 100 µM | [22] > 100 µM | [23] > 100 µM | [24] > 100 µM | [26] > 100 µM | [27] > 100 µM | [28] > 100 µM | [29] > 100 µM | [30] > 100 µM | [32] > 100 µM | [33] 88.5 µM | [34] > 100 µM | [35] > 100 µM | [58] > 100 µM | [37] > 100 µM | [38] > 100 µM | [39] > 100 µM | [40] 91.8 µM | [41] > 100 µM | [42] > 100 µM | [43] > 100 µM | [44] > 100 µM | [45] > 100 µM | [46] > 100 µM | [47] 97.9 µM | [49] > 100 µM | [50] > 100 µM | [51] > 100 µM | [52] > 100 µM | [53] > 100 µM | [54] > 100 µM | [55] > 100 µM

C[Si](C)(C)OC1CC(=O)OC1n1cc(F)c(=O)[nH]c1=O (centres undefined)
active: [11] 0.759 µM
inactive: [1] 21.4 µM | [2] > 100 µM | [3] 4.38 µM | [4] 11.7 µM | [5] 23.9 µM | [6] 18.2 µM | [7] 21 µM | [8] 7.62 µM | [56] 27.2 µM | [9] 12.9 µM | [10] 8.18 µM | [12] 5.79 µM | [14] 9.71 µM | [15] 23.2 µM | [16] 15.7 µM | [17] 8.32 µM | [18] > 96.6 µM | [19] 26.4 µM | [20] 16.2 µM | [21] 18.1 µM | [22] 7.94 µM | [23] 52.4 µM | [24] 48.6 µM | [25] 12.1 µM | [26] 17.8 µM | [27] 19.2 µM | [28] > 86.9 µM | [29] > 27.8 µM | [30] 3.72 µM | [31] 19.5 µM | [32] 52.8 µM | [33] > 28.4 µM | [34] > 89.9 µM | [35] 31.8 µM | [58] 3.14 µM | [36] > 43.6 µM | [37] 14.6 µM | [38] 50.7 µM | [39] > 76.9 µM | [40] 2.58 µM | [41] 15.8 µM | [42] > 100 µM | [43] > 100 µM | [44] > 95.7 µM | [45] 40 µM | [46] > 55.1 µM | [47] 65.9 µM | [49] 2.31 µM | [50] 24.2 µM | [51] > 100 µM | [52] 43 µM | [53] > 64.3 µM | [54] 10.8 µM | [55] 13 µM | [59] 90.2 µM
9.44 µM: [13]

CCOC(=O)C(C)c1c(C(=O)c2ccc(C)nc2)c2ccccc2n1C (centres undefined)
inactive: [1] > 100 µM | [3] > 100 µM | [4] > 100 µM | [5] > 100 µM | [6] > 100 µM | [7] > 100 µM | [8] > 100 µM | [56] > 100 µM | [9] > 100 µM | [10] > 100 µM | [11] > 100 µM | [14] > 100 µM | [16] > 100 µM | [57] 82.8 µM | [17] > 100 µM | [18] > 100 µM | [19] > 100 µM | [20] > 100 µM | [21] > 100 µM | [22] > 100 µM | [23] > 100 µM | [24] > 100 µM | [25] > 100 µM | [26] > 100 µM | [27] > 100 µM | [29] > 100 µM | [30] > 100 µM | [31] 79.6 µM | [32] > 100 µM | [33] > 100 µM | [34] > 100 µM | [35] > 100 µM | [58] 72.1 µM | [36] > 100 µM | [37] > 100 µM | [38] > 100 µM | [39] > 100 µM | [41] > 100 µM | [42] 82.8 µM | [43] > 100 µM | [44] > 100 µM | [45] > 100 µM | [47] 33.3 µM | [48] > 100 µM | [50] > 100 µM | [51] > 100 µM | [53] > 100 µM | [54] > 100 µM | [59] 83 µM
> 100 µM: [13]

CC(=O)N1c2ccccc2N(C(C)=O)C1c1ccc(C2N(C(C)=O)c3ccccc3N2C(C)=O)[nH]1
> 100 µM: [13]
inactive: [1] > 100 µM | [2] > 100 µM | [3] > 100 µM | [5] > 100 µM | [6] > 100 µM | [7] > 100 µM | [56] > 100 µM | [9] > 100 µM | [10] > 100 µM | [11] > 100 µM | [12] > 100 µM | [14] > 100 µM | [16] > 100 µM | [57] > 100 µM | [17] > 100 µM | [18] > 100 µM | [19] > 100 µM | [20] > 100 µM | [21] > 100 µM | [22] > 100 µM | [23] > 100 µM | [24] > 100 µM | [25] > 100 µM | [26] > 100 µM | [27] > 100 µM | [28] > 100 µM | [29] > 100 µM | [30] > 100 µM | [31] > 100 µM | [32] > 100 µM | [33] > 100 µM | [34] > 100 µM | [35] > 100 µM | [58] > 100 µM | [36] > 100 µM | [37] > 100 µM | [38] > 100 µM | [39] > 100 µM | [40] > 100 µM | [43] > 100 µM | [44] > 100 µM | [45] > 100 µM | [46] > 100 µM | [47] > 100 µM | [49] > 100 µM | [50] > 100 µM | [51] > 100 µM | [52] > 100 µM | [53] > 100 µM | [54] > 100 µM | [55] > 100 µM | [59] > 100 µM
